Assay results reported in ChEMBL document CHEMBL4219272, “Synthesis and biological evaluation of curcumin derivatives modified with α-amino boronic acid as proteasome inhibitors” (Bioorg Med Chem Lett, 2018).

Assays:
[1] = Aqueous solubility of the compound; type: physicochemical; conditions: buffer
[2] = test system: HCT-116; assay: Antiproliferative activity against human HCT116 cells after 72 hrs by MTT assay; type: functional, cell-based; conditions: HCT-116, 72 h
[3] = test system: HCT-116; assay: Antiproliferative activity against human HCT116 cells after 36 hrs by XTT assay; type: functional, cell-based; conditions: HCT-116, 36 h
[4] = test system: MDA-MB-231; assay: Antiproliferative activity against human MDA-MB-231 cells after 72 hrs by MTT assay; type: functional, cell-based; conditions: MDA-MB-231, 72 h
[5] = test system: A549; assay: Antiproliferative activity against human A549 cells after 72 hrs by MTT assay; type: functional, cell-based; conditions: A549, 72 h
[6] = Antiproliferative activity against human 95-D cells after 72 hrs by MTT assay; type: functional, cell-based
[7] = target: T1, Proteasome Macropain subunit MB1 (Homo sapiens, UniProt P28074); assay: Inhibition of chymotrypsin-like activity of 20S proteasome in human LNCAP cell extract using Suc-LLVYaminoluciferin as substrate after 2 hrs
T1 sequence (P28074 whole entry): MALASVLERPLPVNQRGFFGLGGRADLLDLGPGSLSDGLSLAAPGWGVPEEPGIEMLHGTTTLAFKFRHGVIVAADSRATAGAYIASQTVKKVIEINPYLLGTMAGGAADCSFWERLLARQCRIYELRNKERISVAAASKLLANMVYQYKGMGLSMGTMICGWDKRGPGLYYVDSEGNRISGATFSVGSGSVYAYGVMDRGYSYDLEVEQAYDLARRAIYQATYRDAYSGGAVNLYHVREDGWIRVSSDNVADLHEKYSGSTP

[8] = target: T1, Proteasome Macropain subunit MB1; assay: Inhibition of chymotrypsin-like activity of 20S proteasome in human PC3 cell extract using Suc-LLVYaminoluciferin as substrate after 2 hrs
[9] = test system: LNCaP; assay: Growth inhibition of human LNCAP cells at 5 to 10 uM after 48 hrs by MTT assay relative to control; type: functional
[10] = target: T1, Proteasome Macropain subunit MB1; assay: Inhibition of chymotrypsin-like activity of 20S proteasome in human K562 cells using Suc-LLVYaminoluciferin as substrate after 2 hrs by luminescence assay; type: cell-based

SMILES | IC50 [2] [nM] | further results
O=C1/C(=C/c2ccc(F)cc2)CNC/C1=C\c1ccc(F)cc1 | – | solubility [1]: Soluble
CC[C@H](NC(=O)N1C/C(=C\c2ccc(F)cc2)C(=O)/C(=C/c2ccc(F)cc2)C1)B1OC(C)(C)C(C)(C)O1 | 876 | –
COc1cc(/C=C/C(=O)CC(=O)/C=C/c2ccc(O)c(OC)c2)ccc1O [CURCUMIN] | 10900 | IC50 [3]: 50000 nM; IC50 [4]: > 10000 nM; IC50 [5]: > 10000 nM; IC50 [6]: > 10000 nM
CC(C)C[C@H](NC(=O)[C@@H](NC(=O)N1C/C(=C\c2ccc(F)cc2)C(=O)/C(=C/c2ccc(F)cc2)C1)C(C)C)B1OC(C)(C)C(C)(C)O1 | 534 | –
COc1cc(/C=C/C(=O)CC(=O)/C=C/c2ccc(OC(=O)[C@@H](N)C(C)C)c(OC)c2)ccc1OC(=O)[C@@H](N)C(C)C | – | IC50 [7]: 10000 nM; IC50 [8]: 10000 nM; growth inhibition (GI) [9]: 38 - 71%; IC50 [10]: > 5000 nM
CC(C)C[C@H](NC(=O)N1C/C(=C\c2ccc(F)cc2)C(=O)/C(=C/c2ccc(F)cc2)C1)B1OC(C)(C)C(C)(C)O1 | 824 to 854 | IC50 [4]: 3310 nM; IC50 [5]: 5050 nM; IC50 [6]: 1120 nM
CC(C)C[C@H](NC(=O)CNC(=O)N1C/C(=C\c2ccc(F)cc2)C(=O)/C(=C/c2ccc(F)cc2)C1)B1OC(C)(C)C(C)(C)O1 | 375 | –
CC1(C)OB([C@@H](NC(=O)N2C/C(=C\c3ccc(F)cc3)C(=O)/C(=C/c3ccc(F)cc3)C2)C2CCCCC2)OC1(C)C | 903 | –
CC1(C)OB([C@H](CCc2ccccc2)NC(=O)N2C/C(=C\c3ccc(F)cc3)C(=O)/C(=C/c3ccc(F)cc3)C2)OC1(C)C | 1040 | –
CC(C)C[C@H](NC(=O)[C@H](CC(C)C)NC(=O)N1C/C(=C\c2ccc(F)cc2)C(=O)/C(=C/c2ccc(F)cc2)C1)B1OC(C)(C)C(C)(C)O1 | 639 | –
CC(C)[C@H](NC(=O)N1C/C(=C\c2ccc(F)cc2)C(=O)/C(=C/c2ccc(F)cc2)C1)B1OC(C)(C)C(C)(C)O1 | 908 | –
CC(C)C[C@H](NC(=O)N1CCN(C(=O)N2C/C(=C\c3ccc(F)cc3)C(=O)/C(=C/c3ccc(F)cc3)C2)CC1)B1OC(C)(C)C(C)(C)O1 | 1630 | –
CCC[C@H](NC(=O)N1C/C(=C\c2ccc(F)cc2)C(=O)/C(=C/c2ccc(F)cc2)C1)B1OC(C)(C)C(C)(C)O1 | 785 | –
CC(C)C[C@H](NC(=O)[C@H](Cc1ccccc1)NC(=O)N1C/C(=C\c2ccc(F)cc2)C(=O)/C(=C/c2ccc(F)cc2)C1)B1OC(C)(C)C(C)(C)O1 | 201 | –
CC(C)(C)[C@H](NC(=O)N1C/C(=C\c2ccc(F)cc2)C(=O)/C(=C/c2ccc(F)cc2)C1)B1OC(C)(C)C(C)(C)O1 | 828 | –
O=C1/C(=C/c2ccc([N+](=O)[O-])cc2)CNC/C1=C\c1ccc([N+](=O)[O-])cc1 | – | solubility [1]: Insoluble
CC(C)C[C@H](NC(=O)[C@H](Cc1ccccc1)NC(=O)N1C/C(=C\c2ccc(F)cc2)C(=O)/C(=C/c2ccc(F)cc2)C1)B(O)O | 203 | IC50 [10]: 835 nM
CC(C)C[C@H](NC(=O)[C@H](Cc1ccc2ccccc2c1)NC(=O)N1C/C(=C\c2ccc(F)cc2)C(=O)/C(=C/c2ccc(F)cc2)C1)B1OC(C)(C)C(C)(C)O1 | 172 | –
CC1(C)OB([C@H](Cc2ccccc2)NC(=O)N2C/C(=C\c3ccc(F)cc3)C(=O)/C(=C/c3ccc(F)cc3)C2)OC1(C)C | 599 | –
